From patent US20260215425A1, “NITRIFICATION INHIBITORS” (The University of Melbourne, priority 2022, published 2026)

Assays:
[1] = system: N. europaea; experiment: standard nitrification inhibition assay (NO2- production, Griess); format: cell-based, Nitrosomonas europaea; conditions: [NH4+]=3 mM, [inhibitor]=0.3 mM (10 mol %), pH 7.5, 30° C., 60 min
Procedure: (§1) Cells of N. multiformis and N. europaea were cultivated to the mid-exponential growth phase (OD600=0.1, [NO2^−] approximately 800 μM) and harvested by filtration onto 0.2 μm membrane filters (Mixed Cellulose Ester (MCE), Sigma Aldrich). The cells were washed with 2×100 mL of 0.1 M sodium phosphate buffer (NaPB), containing 0.2 mM MgSO4 at pH 7.5. The cells were washed from the filter paper by transferring it to a sterile 50 mL tube and resuspending in NaPB (15 mL), followed by 5 s of vortexing (Ratek, Australia) and 3 s of sonication (Vevor, Australia). […] Experiments were performed in triplicate.
(§2) In a deep 96-well plate (2 mL capacity), 980 μL of the bacterial inoculum (OD600=0.03) was added to the inhibitor (10 μL, 30 mmol L^−1 in Milli-Q water), the solutions were mixed thoroughly and pre-incubated in the dark for 5 minutes at 100 rpm and 30° C. (NH4)2SO4 (10 μL, 150 mM, from a prepared sterile solution containing 19.8 g L^−1 (NH4)2SO4 in Milli-Q water) was then added using a multi-channel pipette. The plate was covered with a with an O2 permeable membrane to ensure aeration (Breathe-Easy® sealing membrane, Sigma Aldrich) and incubated in a temperature-regulated rotary incubator (Ratek, Australia) in the dark for 60 minutes at 30° C. and 100 rpm. An aliquot of the reaction solution ([…]) was transferred to a 96-well spectrophotometric plate to which 50 µL of Griess reagent was added. The colour was allowed to develop for 15 minutes at room temperature, and the absorbance was measured at 540 nm. Each assay was accompanied by control treatments to determine the 0% and 100% NO2 signal. The percentage inhibition was calculated according to eqn. 1 from the NO2 production of the cells in NaPB (i) without additive (‘untreated cells’: 0% signal), (ii) with [NH4^+]=3 mM (‘uninhibited’ cells: 100% signal) and (iii) with [NH4^+]=3 mM and [inhibitor]=0.3 mM and 0.03 mM (10 mol % and 1 mol % of [NH4^+], ‘inhibited cells’). Experiments were performed in triplicate.

[2] = system: N. multiformis; experiment: as above; format: cell-based, Nitrosospira multiformis; conditions: [NH4+]=3 mM, [inhibitor]=0.3 mM (10 mol %), pH 7.5, 30° C., 60 min
Procedure: as §1, §2

[3] = system: soils B-E; experiment: soil incubation, N2O production in soils B-E
Procedure: Soil incubations were performed in three replicates. Each sample consisted of 6 g of sieved soil (2 mm). The soil was air-dried after collection and pre-incubated prior to the experiment for seven days at 50% water holding capacity (WHC). The soil was transferred to a gas chromatography vial (22 mL volume, clear glass, Macherey-Nagel, Germany) and compacted densely to allow 5.5-6.2 cm headspace. The soil in the vials was incubated for a total of 21 days at a constant temperature of 21° C. with an open lid to ensure gas circulation. The control incubations contained ‘untreated’ soil (deionized H2O only) and ‘fertiliser only’ soil ((NH4)2SO4; 50 mg kg^−1 soil) and accompanied each measurement. (NH4)2SO4 was applied as an aqueous solution ([…]) and introduced on the soil surface to mimic field conditions. Three inhibitor solutions were prepared from DMP and 4-MPT at concentrations of 0.5 mol %, 2.5 mol % and 5 mol % of applied fertiliser-N and applied on the soil surface. The soils reached 60% WHC after the treatments had been applied and were kept at that moisture level by periodically adding deionized water to compensate for evaporation losses. At the day of measurement (day 1, 3, 5, 7, 14 and 21 after fertilization) the vials were closed gas-tight with a rubber septum and aluminium lid and opened again after each measurement. The N2O emission was analysed using a gas chromatograph equipped with an electron capture detector and flame ionization detector (GC-ECD/FID; Clarus 580, Perkin Elmer). A linear regression slope was used to calculate N2O—N production rates, F, according to eqn. 5:
where ΔC/Δt represents the change of the N2O concentration over the time interval t in ppbv, V represents the headspace volume in L, M represents the molar mass of N in N2O, m represents the amount of soil in g dry weight, Vm represents the molar volume of ideal gases (22.414 L mol^−1) at 0° C. and 101.325 kPa, corrected for the gas sampler using T0 (273.15 K) and Ta (air temperature in K).

C#CCNC(=O)Cn1cc(CCC)nn1 [Compound 4]
% Inhibition NE [1]: 7.1 ± 1%

CCCCn1cc(CCC)nn1 [Compound N013]
% Inhibition NE [1]: 60 ± 1% | % Inhibition NM [2]: 54 ± 2%

Cc1c[nH]nc1C [DMP, 3,4-dimethylpyrazole, reference compound]
N2O production ([3]; Soil B, 0.5 mol %, Day 1): 0.318 ± 0.030 μg g^−1 soil h^−1 | N2O production ([3]; Soil B, 0.5 mol %, Day 3): 0.189 ± 0.006 μg g^−1 soil h^−1 | N2O production ([3]; Soil B, 0.5 mol %, Day 5): 0.151 ± 0.015 μg g^−1 soil h^−1 | N2O production ([3]; Soil B, 0.5 mol %, Day 7): 0.086 ± 0.043 μg g^−1 soil h^−1 | N2O production ([3]; Soil B, 0.5 mol %, Day 14): 0.136 ± 0.006 μg g^−1 soil h^−1 | N2O production ([3]; Soil B, 0.5 mol %, Day 21): 0.019 ± 0.019 μg g^−1 soil h^−1 | N2O production ([3]; Soil B, 2.5 mol %, Day 1): 0.224 ± 0.013 μg g^−1 soil h^−1 | N2O production ([3]; Soil B, 2.5 mol %, Day 3): 0.124 ± 0.008 μg g^−1 soil h^−1 | N2O production ([3]; Soil B, 2.5 mol %, Day 5): 0.060 ± 0.030 μg g^−1 soil h^−1 | N2O production ([3]; Soil B, 2.5 mol %, Day 7): 0.045 ± 0.023 μg g^−1 soil h^−1 | N2O production ([3]; Soil B, 2.5 mol %, Day 14): 0.113 ± 0.006 μg g^−1 soil h^−1 | N2O production ([3]; Soil B, 2.5 mol %, Day 21): 0.127 ± 0.000 μg g^−1 soil h^−1 | N2O production ([3]; Soil B, 5 mol %, Day 1): 0.209 ± 0.054 μg g^−1 soil h^−1 | N2O production ([3]; Soil B, 5 mol %, Day 3): 0.067 ± 0.017 μg g^−1 soil h^−1 | N2O production ([3]; Soil B, 5 mol %, Day 5): 0.058 ± 0.014 μg g^−1 soil h^−1 | N2O production ([3]; Soil B, 5 mol %, Day 7): 0.020 ± 0.010 μg g^−1 soil h^−1 | N2O production ([3]; Soil B, 5 mol %, Day 14): 0.052 ± 0.003 μg g^−1 soil h^−1 | N2O production ([3]; Soil B, 5 mol %, Day 21): 0.037 ± 0.019 μg g^−1 soil h^−1 | N2O production ([3]; Soil C, 0.5 mol %, Day 1): 0.283 ± 0.008 μg g^−1 soil h^−1 | N2O production ([3]; Soil C, 0.5 mol %, Day 3): 0.183 ± 0.003 μg g^−1 soil h^−1 | N2O production ([3]; Soil C, 0.5 mol %, Day 5): 0.081 ± 0.041 μg g^−1 soil h^−1 | N2O production ([3]; Soil C, 0.5 mol %, Day 7): 0.162 ± 0.037 μg g^−1 soil h^−1 | N2O production ([3]; Soil C, 0.5 mol %, Day 14): 0.105 ± 0.007 μg g^−1 soil h^−1 | N2O production ([3]; Soil C, 0.5 mol %, Day 21): 0.101 ± 0.011 μg g^−1 soil h^−1 | N2O production ([3]; Soil C, 2.5 mol %, Day 1): 0.276 ± 0.006 μg g^−1 soil h^−1 | N2O production ([3]; Soil C, 2.5 mol %, Day 3): 0.161 ± 0.006 μg g^−1 soil h^−1 | N2O production ([3]; Soil C, 2.5 mol %, Day 5): 0.133 ± 0.006 μg g^−1 soil h^−1 | N2O production ([3]; Soil C, 2.5 mol %, Day 7): 0.113 ± 0.005 μg g^−1 soil h^−1 | N2O production ([3]; Soil C, 2.5 mol %, Day 14): 0.086 ± 0.006 μg g^−1 soil h^−1 | N2O production ([3]; Soil C, 2.5 mol %, Day 21): 0.089 ± 0.005 μg g^−1 soil h^−1 | N2O production ([3]; Soil C, 5 mol %, Day 1): 0.228 ± 0.017 μg g^−1 soil h^−1 | N2O production ([3]; Soil C, 5 mol %, Day 3): 0.125 ± 0.006 μg g^−1 soil h^−1 | N2O production ([3]; Soil C, 5 mol %, Day 5): 0.099 ± 0.008 μg g^−1 soil h^−1 | N2O production ([3]; Soil C, 5 mol %, Day 7): 0.098 ± 0.010 μg g^−1 soil h^−1 | N2O production ([3]; Soil C, 5 mol %, Day 14): 0.085 ± 0.009 μg g^−1 soil h^−1 | N2O production ([3]; Soil C, 5 mol %, Day 21): 0.095 ± 0.000 μg g^−1 soil h^−1 | N2O production ([3]; Soil D, 0.5 mol %, Day 1): 0.131 ± 0.001 μg g^−1 soil h^−1 | N2O production ([3]; Soil D, 0.5 mol %, Day 3): 0.133 ± 0.003 μg g^−1 soil h^−1 | N2O production ([3]; Soil D, 0.5 mol %, Day 5): 0.063 ± 0.003 μg g^−1 soil h^−1 | N2O production ([3]; Soil D, 0.5 mol %, Day 7): 0.112 ± 0.008 μg g^−1 soil h^−1 | N2O production ([3]; Soil D, 0.5 mol %, Day 14): 0.072 ± 0.009 μg g^−1 soil h^−1 | N2O production ([3]; Soil D, 0.5 mol %, Day 21): 0.098 ± 0.011 μg g^−1 soil h^−1 | N2O production ([3]; Soil D, 2.5 mol %, Day 1): 0.073 ± 0.037 μg g^−1 soil h^−1 | N2O production ([3]; Soil D, 2.5 mol %, Day 3): 0.120 ± 0.005 μg g^−1 soil h^−1 | N2O production ([3]; Soil D, 2.5 mol %, Day 5): 0.067 ± 0.006 μg g^−1 soil h^−1 | N2O production ([3]; Soil D, 2.5 mol %, Day 7): 0.115 ± 0.012 μg g^−1 soil h^−1 | N2O production ([3]; Soil D, 2.5 mol %, Day 14): 0.070 ± 0.006 μg g^−1 soil h^−1 | N2O production ([3]; Soil D, 2.5 mol %, Day 21): 0.063 ± 0.003 μg g^−1 soil h^−1 | N2O production ([3]; Soil D, 5 mol %, Day 1): 0.114 ± 0.015 μg g^−1 soil h^−1 | N2O production ([3]; Soil D, 5 mol %, Day 3): 0.112 ± 0.006 μg g^−1 soil h^−1 | N2O production ([3]; Soil D, 5 mol %, Day 5): 0.039 ± 0.021 μg g^−1 soil h^−1 | N2O production ([3]; Soil D, 5 mol %, Day 7): 0.102 ± 0.014 μg g^−1 soil h^−1 | N2O production ([3]; Soil D, 5 mol %, Day 14): 0.056 ± 0.004 μg g^−1 soil h^−1 | N2O production ([3]; Soil D, 5 mol %, Day 21): 0.069 ± 0.007 μg g^−1 soil h^−1 | N2O production ([3]; Soil E, 0.5 mol %, Day 1): 0.053 ± 0.002 μg g^−1 soil h^−1 | N2O production ([3]; Soil E, 0.5 mol %, Day 3): 0.037 ± 0.006 μg g^−1 soil h^−1 | N2O production ([3]; Soil E, 0.5 mol %, Day 5): 0.015 ± 0.008 μg g^−1 soil h^−1 | N2O production ([3]; Soil E, 0.5 mol %, Day 7): 0.000 ± 0.000 μg g^−1 soil h^−1 | N2O production ([3]; Soil E, 0.5 mol %, Day 14): 0.000 ± 0.000 μg g^−1 soil h^−1 | N2O production ([3]; Soil E, 0.5 mol %, Day 21): 0.000 ± 0.000 μg g^−1 soil h^−1 | N2O production ([3]; Soil E, 2.5 mol %, Day 1): 0.080 ± 0.009 μg g^−1 soil h^−1 | N2O production ([3]; Soil E, 2.5 mol %, Day 3): 0.014 ± 0.014 μg g^−1 soil h^−1 | N2O production ([3]; Soil E, 2.5 mol %, Day 5): 0.000 ± 0.000 μg g^−1 soil h^−1 | N2O production ([3]; Soil E, 2.5 mol %, Day 7): 0.000 ± 0.000 μg g^−1 soil h^−1 | N2O production ([3]; Soil E, 2.5 mol %, Day 14): 0.008 ± 0.008 μg g^−1 soil h^−1 | N2O production ([3]; Soil E, 2.5 mol %, Day 21): 0.000 ± 0.000 μg g^−1 soil h^−1 | N2O production ([3]; Soil E, 5 mol %, Day 1): 0.045 ± 0.011 μg g^−1 soil h^−1 | N2O production ([3]; Soil E, 5 mol %, Day 3): 0.011 ± 0.011 μg g^−1 soil h^−1 | N2O production ([3]; Soil E, 5 mol %, Day 5): 0.000 ± 0.000 μg g^−1 soil h^−1 | N2O production ([3]; Soil E, 5 mol %, Day 7): 0.000 ± 0.000 μg g^−1 soil h^−1 | N2O production ([3]; Soil E, 5 mol %, Day 14): 0.007 ± 0.007 μg g^−1 soil h^−1 | N2O production ([3]; Soil E, 5 mol %, Day 21): 0.000 ± 0.000 μg g^−1 soil h^−1 | N2O production rate ([3]; soil B, 0.5 mol % (lowest application rate), day 1): 0.32 ng g^−1 soil h^−1 | N2O production rate relative to the uninhibited soil ([3]; soil B, 0.5 mol %, day 1): approximately 50% | N2O production rate relative to that in the absence of the inhibitor ([3]; soil B, 2.5 mol %): approximately 67% | N2O production rate relative to that in the absence of the inhibitor ([3]; soil B, 5 mol %): approximately 67% | N2O formation rate compared to the uninhibited soil ([3]; soil C, 0.5 mol % and 2.5 mol %, first two weeks (P>0.05)): did not show a significantly reduced N2O formation rate | N2O production rate ([3]; soil C, highest application rate (5 mol %), day 21): 0.095 ng g^−1 soil h^−1 | N2O production rates compared to the uninhibited soil ([3]; soil D (P>0.05)): No significant difference | N2O production beyond day 5 ([3]; soil E, 5 mol %): no N2O production was detected
